ChEMBL document CHEMBL3826933, “Discovery of 7-(Prolinol-N-yl)-2-phenylamino-thiazolo[5,4-d]pyrimidines as Novel Non-Nucleoside Partial Agonists for the A2A Adenosine Receptor: Prediction from Molecular Modeling” (J Med Chem, 2016)

What was measured:
Adenosine receptor A2b = target: T1, Adenosine receptor A2b (Homo sapiens, UniProt P29275); experiment: Antagonist activity at recombinant human adenosine A2B receptor expressed in CHOK1 cell membrane assessed as inhibition of NECA-stimulated adenylyl cyclase activity incubated for 20 mins in presence of [alpha32P]ATP; assay type: functional, cell-based, CHO-K1
T1 sequence (P29275 whole entry): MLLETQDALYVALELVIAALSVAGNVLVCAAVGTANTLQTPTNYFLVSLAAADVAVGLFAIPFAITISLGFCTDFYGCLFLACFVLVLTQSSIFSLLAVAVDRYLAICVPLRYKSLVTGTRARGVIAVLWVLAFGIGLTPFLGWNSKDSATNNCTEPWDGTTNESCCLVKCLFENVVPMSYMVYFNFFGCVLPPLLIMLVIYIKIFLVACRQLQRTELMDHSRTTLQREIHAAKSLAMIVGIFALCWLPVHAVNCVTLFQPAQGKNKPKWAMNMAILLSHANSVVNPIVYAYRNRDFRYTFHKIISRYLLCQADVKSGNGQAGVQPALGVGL

Adenosine receptor A1 = target: T2, Adenosine receptor A1 (Homo sapiens, UniProt P30542); experiment: Displacement of [3H]CCPA from recombinant human adenosine A1 receptor expressed in CHO cell membrane after 3 hrs by microbeta scintillation counting method; assay type: cell membranes
T2 sequence (P30542 whole entry): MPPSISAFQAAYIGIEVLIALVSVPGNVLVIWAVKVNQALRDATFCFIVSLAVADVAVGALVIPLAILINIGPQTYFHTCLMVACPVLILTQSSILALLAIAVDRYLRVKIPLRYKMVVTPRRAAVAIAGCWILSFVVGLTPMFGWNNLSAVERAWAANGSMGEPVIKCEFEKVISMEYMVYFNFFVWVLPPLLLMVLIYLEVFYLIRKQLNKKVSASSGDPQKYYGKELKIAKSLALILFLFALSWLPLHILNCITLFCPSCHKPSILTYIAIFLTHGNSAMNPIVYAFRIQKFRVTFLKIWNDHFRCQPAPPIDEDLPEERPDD

Adenosine receptor A3 = target: T3, Adenosine receptor A3 (Homo sapiens, UniProt P0DMS8); experiment: biochemical
T3 sequence (P0DMS8 whole entry): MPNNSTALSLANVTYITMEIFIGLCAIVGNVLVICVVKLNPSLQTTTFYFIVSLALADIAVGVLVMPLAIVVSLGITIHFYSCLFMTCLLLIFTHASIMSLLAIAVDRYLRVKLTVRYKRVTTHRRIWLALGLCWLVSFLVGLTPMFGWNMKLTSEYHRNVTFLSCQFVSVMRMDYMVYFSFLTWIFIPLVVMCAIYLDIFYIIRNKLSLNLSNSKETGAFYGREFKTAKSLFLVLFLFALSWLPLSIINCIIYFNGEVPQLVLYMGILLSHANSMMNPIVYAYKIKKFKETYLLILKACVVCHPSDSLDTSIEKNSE
Description: Displacement of [3H]HEMADO from recombinant human adenosine A3 receptor expressed in CHO cell membrane after 3 hrs by microbeta scintillation counting method

Adenosine receptor A2a [1] = target: T4, Adenosine receptor A2a (Homo sapiens, UniProt P29274); experiment: Displacement of [3H]NECA from recombinant human adenosine A2A receptor expressed in CHO cell membrane after 3 hrs by microbeta scintillation counting method; assay type: cell membranes
Adenosine receptor A2a [2] = target: T4, Adenosine receptor A2a; experiment: Partial agonist activity at recombinant human adenosine A2A receptor expressed in CHOK1 cell membrane assessed as adenylyl cyclase activity at 1 to 100 uM incubated for 20 mins in presence of [alpha32P]ATP relative to NECA; assay type: functional, cell-based; conditions: CHO-K1
Adenosine receptor A2a [3] = target: T4, Adenosine receptor A2a; experiment: Partial agonist activity at recombinant human adenosine A2A receptor expressed in CHOK1 cell membrane assessed as adenylyl cyclase activity at 100 uM incubated for 20 mins in presence of [alpha32P]ATP relative to NECA; assay type: functional, cell-based; conditions: CHO-K1
CHO [4] = experiment: Selectivity ratio of Ki for recombinant human adenosine A3 receptor expressed in CHO cell membrane to Ki for recombinant human adenosine A2A receptor expressed in CHO cell membrane; assay type: cell-based
CHO [5] = experiment: Selectivity ratio of Ki for recombinant human adenosine A1 receptor expressed in CHO cell membrane to Ki for recombinant human adenosine A2A receptor expressed in CHO cell membrane; assay type: cell-based

T4 sequence (P29274 whole entry): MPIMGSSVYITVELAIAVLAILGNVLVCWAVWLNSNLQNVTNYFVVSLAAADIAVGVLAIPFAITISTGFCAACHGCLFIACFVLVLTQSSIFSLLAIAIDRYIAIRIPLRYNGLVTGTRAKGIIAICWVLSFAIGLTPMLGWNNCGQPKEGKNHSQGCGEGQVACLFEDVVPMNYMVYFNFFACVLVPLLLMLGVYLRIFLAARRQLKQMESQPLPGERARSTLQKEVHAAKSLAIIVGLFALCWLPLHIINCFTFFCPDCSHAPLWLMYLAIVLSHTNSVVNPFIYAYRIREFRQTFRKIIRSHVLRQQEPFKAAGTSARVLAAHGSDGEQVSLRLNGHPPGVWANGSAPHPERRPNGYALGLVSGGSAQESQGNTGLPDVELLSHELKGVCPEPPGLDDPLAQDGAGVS

| SMILES | Ki (Adenosine receptor A2b) [µM] | Ki (Adenosine receptor A1) [µM] | Ki (Adenosine receptor A3) [µM] | Ki (Adenosine receptor A2a [1]) [µM] | Efficacy (Adenosine receptor A2a [2]) [%] | Efficacy (Adenosine receptor A2a [3]) [%] | Ratio Ki (CHO [4]) | Ratio Ki (CHO [5]) |
| --- | --- | --- | --- | --- | --- | --- | --- | --- |
| c1ccc(Nc2nc3c(N4CCC(N5CCCCC5)CC4)ncnc3s2)cc1 | > 10 | > 100 | > 100 | > 100 | – | – | – | – |
| CN(C)c1ncnc2sc(Nc3ccc(Cl)cc3)nc12 | > 10 | > 100 | > 10 | > 100 | – | – | – | – |
| Fc1cccc(F)c1Nc1nc2c(N3CCCC3)ncnc2s1 | > 10 | 2.31 | 3.19 | 2.26 | 10 | – | – | – |
| OC[C@@H]1CCCN1c1ncnc2sc(Nc3ccc(Cl)cc3)nc12 | > 10 | 0.629 | 0.934 | 0.466 | – | 50 | – | – |
| Clc1ncnc2sc(Nc3ccccc3)nc12 | > 10 | > 100 | 3.67 | 1.52 | – | – | – | – |
| c1ccc(Nc2nc3c(N4CCCC4)ncnc3s2)cc1 | > 10 | > 30 | 8.63 | 0.351 | 10 | – | – | – |
| CCN(CC)c1ncnc2sc(Nc3ccccc3)nc12 | > 10 | > 100 | > 30 | 2.21 | – | – | – | – |
| c1ccc(Nc2nc3c(N4CCCCC4)ncnc3s2)cc1 | > 10 | > 30 | 12.1 | 0.98 | – | – | – | – |
| CN(C)c1ncnc2sc(Nc3ccccc3)nc12 | > 10 | > 100 | 1.28 | 1.27 | – | – | – | – |
| COc1cc(Nc2nc3c(Cl)ncnc3s2)cc(OC)c1OC | > 10 | > 100 | 2.65 | 1.05 | – | – | – | – |
| COc1cc(Nc2nc3c(N4CCC[C@H]4CO)ncnc3s2)cc(OC)c1OC | > 10 | 0.974 | 1.46 | 0.33 | – | 50 | – | – |
| Cc1ccc(Nc2nc3c(N4CCC[C@H]4CO)ncnc3s2)cc1 | > 10 | 0.399 | 0.843 | 0.313 | – | 50 | – | – |
| COc1cc(Nc2nc3c(N4CCCC4)ncnc3s2)cc(OC)c1OC | > 10 | > 100 | 1.28 | 0.102 | 10 | – | 12 | > 100 |
| c1ccc(Nc2nc3c(N4CCNCC4)ncnc3s2)cc1 | > 10 | > 30 | > 10 | 9.09 | – | – | – | – |
| Cc1ccc(Nc2nc3c(Cl)ncnc3s2)cc1 | > 10 | > 100 | 4.64 | 4.93 | – | – | – | – |
| c1ccc(Nc2nc3c(N4CCOCC4)ncnc3s2)cc1 | > 10 | > 100 | 4.46 | 0.333 | – | – | 13 | > 3000 |
| Clc1ccc(Nc2nc3c(N4CCCC4)ncnc3s2)cc1 | > 10 | > 100 | 4.26 | 2.06 | 10 | – | – | – |

| SMILES | Ki (Adenosine receptor A2b) [µM] | Ki (Adenosine receptor A1) [µM] | Ki (Adenosine receptor A3) [µM] | Ki (Adenosine receptor A2a [1]) [µM] | Efficacy (Adenosine receptor A2a [2]) [%] | Efficacy (Adenosine receptor A2a [3]) [%] | Ratio Ki (CHO [4]) | Ratio Ki (CHO [5]) |
| --- | --- | --- | --- | --- | --- | --- | --- | --- |
| CN1CCN(c2ncnc3sc(Nc4ccc(Cl)cc4)nc23)CC1 | > 10 | > 100 | > 10 | > 100 | – | – | – | – |
| CN1CCN(c2ncnc3sc(Nc4ccccc4)nc23)CC1 | > 10 | > 30 | 4.31 | 2.84 | – | – | – | – |
| Clc1ncnc2sc(NCCN3CCOCC3)nc12 | > 10 | > 100 | > 100 | > 100 | – | – | – | – |
| O=[N+]([O-])c1ccc(Nc2nc3c(N4CCCC4)ncnc3s2)cc1 | > 10 | > 30 | 3.63 | 3.18 | – | – | – | – |
| O=C(Nc1nc2c(Cl)ncnc2s1)c1ccccc1 | > 10 | 7.24 | 7.33 | 1.5 | – | – | – | – |
| CCN(CC)c1ncnc2sc(Nc3ccc(Cl)cc3)nc12 | > 10 | 16.5 | 3.89 | 11.2 | – | – | – | – |
| COc1ccc(Nc2nc3c(N4CCC[C@H]4CO)ncnc3s2)cc1 | > 10 | 0.713 | 0.594 | 1.11 | – | – | – | – |
| OC[C@@H]1CCCN1c1ncnc2sc(Nc3c(F)cccc3F)nc12 | > 10 | 7.97 | 3.42 | 3.26 | – | 50 | – | – |
| Clc1ncnc2sc(Nc3cccc(Br)c3)nc12 | > 10 | 12.6 | 3.9 | 2.96 | – | – | – | – |
| Clc1ccc(Nc2nc3c(N4CCOCC4)ncnc3s2)cc1 | > 10 | > 100 | > 100 | 1.4 | – | – | – | – |
| Clc1ccc(Nc2nc3c(Cl)ncnc3s2)cc1 | > 10 | 25 | 4.94 | 2.69 | – | – | – | – |
| CCN1CCN(c2ncnc3sc(Nc4ccccc4)nc23)CC1 | > 10 | > 100 | > 30 | 8.39 | – | – | – | – |
| COc1ccc(Nc2nc3c(Cl)ncnc3s2)cc1 | > 10 | 11.5 | 5.88 | 3.57 | – | – | – | – |
| Clc1ccc(Nc2nc3c(N4CCCCC4)ncnc3s2)cc1 | > 10 | > 100 | 18.3 | 13.2 | – | – | – | – |
| Fc1cccc(F)c1Nc1nc2c(Cl)ncnc2s1 | > 10 | 17.8 | 17.2 | 8.11 | – | – | – | – |
| S=C(NCc1ccccc1)N(Cc1ccccc1)c1nc2c(Cl)ncnc2s1 | > 10 | > 30 | – | 1.87 | – | – | – | – |
| O=[N+]([O-])c1ccc(Nc2nc3c(Cl)ncnc3s2)cc1 | > 10 | > 30 | 7.95 | > 30 | – | – | – | – |
